Results from patent publication US20060069132A1, “Azolecarboxamide herbicides” (priority 2004, published 2006).

Experiments:
[1] = test system: kochia; assay: Test C pre-/postemergence herbicide test; format: in vivo, Kochia scoparia; conditions: for Plant response rating, Kochia / Plant response rating (0 = no effect, 100 = complete control), Kochia: preemergence
Method in brief: (§1)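 Visual injury scores run from 0 (no effect) to 100 (complete control), assessed relative to untreated controls 12 to 14 days after treatment in the greenhouse. Chemicals were formulated in a non-phytotoxic solvent mixture with surfactant and applied to soil after planting or to emerged plants at the 1- to 4-leaf stage.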

[2] = test system: eastern black nightshade; assay: Test C pre-/postemergence herbicide test; format: in vivo, Solanum ptycanthum; conditions: for Plant response rating, Nightshade / Plant response rating (0 = no effect, 100 = complete control), Nightshade: preemergence
Method in brief: as §1

[3] = test system: yellow nutsedge; assay: Test C pre-/postemergence herbicide test; format: in vivo, Cyperus esculentus; conditions: for Plant response rating, Nutsedge, Yellow / Plant response rating (0 = no effect, 100 = complete control), Nutsedge, Yellow: preemergence
Method in brief: as §1

[4] = test system: soybean; assay: Test C pre-/postemergence herbicide test; format: in vivo, Glycine max; conditions: for Plant response rating, Soybean / Plant response rating (0 = no effect, 100 = complete control), Soybean: preemergence
Method in brief: as §1

[5] = test system: lambsquarters; assay: Test B pre-/postemergence herbicide test; format: in vivo, Chenopodium album
Method in brief: (§2)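 Pre: seeds sown, then sprayed. Post: 1–4-leaf plants (2–18 cm) sprayed at the same time. Paddy: flooded, treated at 2-leaf stage. Formulation: non-phytotoxic solvent with surfactant. Greenhouse 13–15 days; visual 0–100 score relative to controls.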

[6] = test system: cocklebur; assay: Test C pre-/postemergence herbicide test; format: in vivo, Xanthium strumarium; conditions: for Plant response rating, Cocklebur / Plant response rating (0 = no effect, 100 = complete control), Cocklebur: preemergence
Method in brief: as §1

[7] = test system: morningglory; assay: Test B pre-/postemergence herbicide test; format: in vivo, Ipomoea coccinea
Method in brief: as §2

[8] = 500 g ai/ha, scale 0 to 100 (0 no effect, 100 complete control), visual, 12 to 14 days
[9] = 125 g ai/ha, 0 is no effect, 100 is complete control, preemergence
[10] = 125 g ai/ha, visual rating, scale 0 (no effect) to 100 (complete control), postemergence
[11] = 500 g ai/ha, visual rating, 0 = no effect, 100 = complete control, preemergence
[12] = postemergence, 500 g ai/ha, scale 0 to 100, 0 is no effect, 100 is complete control
[13] = 125 g ai/ha, scale 0 (no effect) to 100 (complete control), visual, 12 to 14 days
[14] = 250 g ai/ha, scale 0 to 100 (0 no effect, 100 complete control), visual, 12 to 14 days
[15] = Preemergence, 500 g ai/ha, scale 0 to 100, 0 no effect, 100 complete control
[16] = Postemergence, 500 g ai/ha, visual rating after 13 to 15 days, scale 0 (no effect) to 100 (complete control)
[17] = Preemergence, 500 g ai/ha, scale 0 to 100
[18] = postemergence, 125 g ai/ha, visual rating, scale 0 (no effect) to 100 (complete control)
[19] = preemergence, 125 g ai/ha, 0 to 100 scale, 0 is no effect, 100 is complete control

With CCC1=NN(C(C)(C)C)CC1C(=O)Nc1cc(C(=O)N2CCCC2)ccc1F (racemic) [Compound 341] the “Plant response rating, Kochia” value ([1]; 62 g ai/ha, scale 0 to 100) was 80, the “Plant response rating (0 = no effect, 100 = complete control), Kochia” value ([1]; 125 g ai/ha) was 100 and the “Plant response rating, Kochia” value ([1]; 250 g ai/ha, scale 0-100) was 100. For the same compound, the “Plant response rating, Kochia” value [1, 8] was 100, the “Plant response rating, Nightshade” value ([2]; 62 g ai/ha, scale 0 to 100) was 50 and the “Plant response rating (0 = no effect, 100 = complete control), Nightshade” value ([2]; 125 g ai/ha) was 55. The “Plant response rating, Nightshade” value ([2]; 250 g ai/ha, scale 0-100) was 100, the “Plant response rating, Nightshade” value [2, 8] was 100 and the “Plant response rating, Nutsedge, Yellow” value ([3]; 62 g ai/ha, scale 0 to 100) was 0. For the same compound, the “Plant response rating (0 = no effect, 100 = complete control), Nutsedge, Yellow” value ([3]; 125 g ai/ha) was 0, the “Plant response rating, Nutsedge, Yellow” value ([3]; 250 g ai/ha, scale 0-100) was 30 and the “Plant response rating, Nutsedge, Yellow” value [3, 8] was 60. The “Plant response rating, Soybean” value ([4]; 62 g ai/ha, scale 0 to 100) was 0, the “Plant response rating (0 = no effect, 100 = complete control), Soybean” value ([4]; 125 g ai/ha) was 20 and the “Plant response rating, Soybean” value ([4]; 250 g ai/ha, scale 0-100) was 70. For the same compound, the “Plant response rating, Soybean” value [4, 8] was 100, the “Plant response rating (0 to 100 scale), Lambsquarters” value [5, 9] was 100 and the “Lambsquarters plant response rating” value [5, 10] was 30. The “Plant response rating, Lambsquarters” value [5, 11] was 100, the “Lambsquarters plant response rating” value [5, 12] was 100 and the “Plant response rating, Cocklebur” value ([6]; 62 g ai/ha, scale 0 to 100) was 0. For the same compound, the “Plant response rating (0 = no effect, 100 = complete control), Cocklebur” value ([6]; 125 g ai/ha) was 10, the “Plant response rating, Cocklebur” value ([6]; 250 g ai/ha, scale 0-100) was 50 and the “Plant response rating, Cocklebur” value [6, 8] was 100. For the same compound, the “Morningglory plant response rating” value [7, 10] was 20, the “Plant response rating, Morningglory” value [7, 11] was 30 and the “Morningglory plant response rating” value [7, 12] was 40.
CCC1=NN(C(C)(C)C)CC1C(=O)Nc1cc(C(=O)N(C)CC)ccc1F (racemic) [Compound 342] was tested, and the “Plant response rating, Kochia” value ([1]; 62 g ai/ha, scale 0 to 100) was 50, the “Plant response rating (0 = no effect, 100 = complete control), Kochia” value ([1]; 125 g ai/ha) was 100 and the “Plant response rating, Kochia” value ([1]; 250 g ai/ha, scale 0-100) was 100. For the same compound, the “Plant response rating, Kochia” value [1, 8] was 100, the “Plant response rating, Nightshade” value ([2]; 62 g ai/ha, scale 0 to 100) was 60 and the “Plant response rating (0 = no effect, 100 = complete control), Nightshade” value ([2]; 125 g ai/ha) was 80. For the same compound, the “Plant response rating, Nightshade” value ([2]; 250 g ai/ha, scale 0-100) was 80, the “Plant response rating, Nightshade” value [2, 8] was 85 and the “Plant response rating, Nutsedge, Yellow” value ([3]; 62 g ai/ha, scale 0 to 100) was 0. For the same compound, the “Plant response rating (0 = no effect, 100 = complete control), Nutsedge, Yellow” value ([3]; 125 g ai/ha) was 0, the “Plant response rating, Nutsedge, Yellow” value ([3]; 250 g ai/ha, scale 0-100) was 40 and the “Plant response rating, Nutsedge, Yellow” value [3, 8] was 60. For the same compound, the “Plant response rating, Soybean” value ([4]; 62 g ai/ha, scale 0 to 100) was 10, the “Plant response rating (0 = no effect, 100 = complete control), Soybean” value ([4]; 125 g ai/ha) was 60 and the “Plant response rating, Soybean” value ([4]; 250 g ai/ha, scale 0-100) was 100. For the same compound, the “Plant response rating, Soybean” value [4, 8] was 100, the “Plant response rating (0 to 100 scale), Lambsquarters” value [5, 9] was 80 and the “Lambsquarters plant response rating” value [5, 10] was 60. The “Plant response rating, Lambsquarters” value [5, 11] was 100, the “Lambsquarters plant response rating” value [5, 12] was 100 and the “Plant response rating, Cocklebur” value ([6]; 62 g ai/ha, scale 0 to 100) was 10. For the same compound, the “Plant response rating (0 = no effect, 100 = complete control), Cocklebur” value ([6]; 125 g ai/ha) was 30, the “Plant response rating, Cocklebur” value ([6]; 250 g ai/ha, scale 0-100) was 60 and the “Plant response rating, Cocklebur” value [6, 8] was 100. For the same compound, the “Plant response rating (0 to 100 scale), Morningglory” value [7, 9] was 10, the “Morningglory plant response rating” value [7, 10] was 30 and the “Plant response rating, Morningglory” value [7, 11] was 70. For the same compound, the “Morningglory plant response rating” value [7, 12] was 80.
CCCn1nc(C(C)(C)C)cc1C(=O)Nc1cccc(C(=O)NCC)c1 [Compound 57] was tested, and the “Plant response rating (0 = no effect, 100 = complete control), Kochia” value ([1]; 62 g ai/ha) was 100, the “Plant response rating, Kochia” value [1, 13] was 100 and the “Plant response rating, Kochia” value [1, 14] was 100. For the same compound, the “Kochia plant response rating” value [1, 15] was 100, the “Plant response rating (0 = no effect, 100 = complete control), Nightshade” value ([2]; 62 g ai/ha) was 85 and the “Plant response rating, Nightshade” value [2, 13] was 95. For the same compound, the “Plant response rating, Nightshade” value [2, 14] was 100, the “Nightshade plant response rating” value [2, 15] was 100 and the “Plant response rating (0 = no effect, 100 = complete control), Nutsedge, Yellow” value ([3]; 62 g ai/ha) was 0. For the same compound, the “Plant response rating, Nutsedge, Yellow” value [3, 13] was 0, the “Plant response rating, Nutsedge, Yellow” value [3, 14] was 0 and the “Nutsedge, Yellow plant response rating” value [3, 15] was 20. For the same compound, the “Plant response rating (0 = no effect, 100 = complete control), Soybean” value ([4]; 62 g ai/ha) was 0, the “Plant response rating, Soybean” value [4, 13] was 0 and the “Plant response rating, Soybean” value [4, 14] was 0. The “Soybean plant response rating” value [4, 15] was 60, the “Plant response rating, Lambsquarters” value [5, 16] was 90 and the “Lambsquarters plant response rating” value [5, 17] was 100. The “Lambsquarters plant response rating” value [5, 18] was 70, the “Plant response rating, Lambsquarters” value [5, 19] was 100 and the “Plant response rating (0 = no effect, 100 = complete control), Cocklebur” value ([6]; 62 g ai/ha) was 0. The “Plant response rating, Cocklebur” value [6, 13] was 0, the “Plant response rating, Cocklebur” value [6, 14] was 0 and the “Cocklebur plant response rating” value [6, 15] was 0. The “Plant response rating, Morningglory” value [7, 16] was 10, the “Morningglory plant response rating” value [7, 17] was 0 and the “Morningglory plant response rating” value [7, 18] was 10. For the same compound, the “Plant response rating, Morningglory” value [7, 19] was 0.
